Measurements from PubChem BioAssay AID330 (DTP/NCI, 2004).
Inconclusive results and toxic doses are left out. The calls were made as follows: active = survival T/C of 150% or more; inactive = T/C below 125% in these data.

System: P388 leukemia ip, CD2F1 mice, survival T/C
Experiment: NCI In Vivo Anticancer Drug Screen. Data for tumor model P388 Leukemia (intraperitoneal) in CD2F1 (CDF1) mice
Settings: endpoint: median survival time, higher = longer survival
In short: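 Mice carrying the transplanted tumor received test compound or vehicle. Survival was recorded in each group, and the value is the treated-group measurement divided by that of the vehicle-treated control group.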

[1] = dose: 50.0 mg/kg/injection, schedule: Q01DX005 (ip), vehicle: saline with Tween-80
[2] = dose: 100.0 mg/kg/injection, schedule: Q01DX005 (ip), vehicle: saline with Tween-80
[3] = dose: 200.0 mg/kg/injection, schedule: Q01DX005 (ip), vehicle: saline with Tween-80
[4] = dose: 12.5 mg/kg/injection, schedule: Q01DX009 (ip), vehicle: water
[5] = dose: 25.0 mg/kg/injection, schedule: Q01DX009 (ip), vehicle: water
[6] = dose: 50.0 mg/kg/injection, schedule: Q01DX009 (ip), vehicle: water
[7] = dose: 100.0 mg/kg/injection, schedule: Q01DX009 (ip), vehicle: water
[8] = dose: 50.0 mg/kg/injection, schedule: Q01DX009 (ip), vehicle: saline with Tween-80
[9] = dose: 100.0 mg/kg/injection, schedule: Q01DX009 (ip), vehicle: saline with Tween-80
[10] = dose: 200.0 mg/kg/injection, schedule: Q01DX009 (ip), vehicle: saline with Tween-80
[11] = dose: 25.0 mg/kg/injection, schedule: Q01DX009 (ip), vehicle: other
[12] = dose: 50.0 mg/kg/injection, schedule: Q01DX005 (ip), vehicle: Klucel (hydroxypropylcellulose) (HPC)
[13] = dose: 100.0 mg/kg/injection, schedule: Q01DX005 (ip), vehicle: Klucel (hydroxypropylcellulose) (HPC)
[14] = dose: 400.0 mg/kg/injection, schedule: Q01DX009 (ip), vehicle: saline with Tween-80

Measured: T/C

CS(=O)(=O)OCCN1C(=O)CNC1=O
inactive: dose: 12.5 mg/kg/injection, schedule: Q04DX003 (ip), vehicle: saline 99 % of control | dose: 25.0 mg/kg/injection, schedule: Q04DX003 (ip), vehicle: saline 106 % of control | dose: 50.0 mg/kg/injection, schedule: Q04DX003 (ip), vehicle: saline 99 % of control | dose: 100.0 mg/kg/injection, schedule: Q04DX003 (ip), vehicle: saline 101 % of control | dose: 200.0 mg/kg/injection, schedule: Q04DX003 (ip), vehicle: saline 101 % of control | dose: 400.0 mg/kg/injection, schedule: Q04DX003 (ip), vehicle: saline 99 % of control

O=C(NN1C(=O)CS(=O)(=O)C1c1ccc(F)cc1)c1ccncc1 (stereo unspecified)
inactive: [1] 98 % of control | [2] 97 % of control | [3] 88 % of control

NCCCn1ccc2c3ccccc3nc-2c1
inactive: [4] 105 % of control | [5] 90 % of control | [6] 104 % of control | [7] 105 % of control

NNS(=O)(=O)CCC(N)C(=O)O (stereo unspecified)
inactive: [4] 100 % of control | [5] 107 % of control | [6] 107 % of control | [7] 98 % of control

O=[N+]([O-])c1ccc(-c2csc(NCC3CCCO3)n2)cc1 (stereo unspecified)
inactive: dose: 50.0 mg/kg/injection, schedule: Q01DX009 (ip), vehicle: Klucel (hydroxypropylcellulose) (HPC) 101 % of control | dose: 100.0 mg/kg/injection, schedule: Q01DX009 (ip), vehicle: Klucel (hydroxypropylcellulose) (HPC) 100 % of control | dose: 200.0 mg/kg/injection, schedule: Q01DX009 (ip), vehicle: Klucel (hydroxypropylcellulose) (HPC) 100 % of control

Nc1nc(Sc2ccccn2)ccc1[N+](=O)[O-]
inactive: [8] 91 % of control | [9] 91 % of control | [10] 102 % of control

NC(CCl)C(=O)NO (stereo unspecified)
inactive: dose: 50.0 mg/kg/injection, schedule: Q01DX009 (ip), vehicle: saline 99 % of control | dose: 100.0 mg/kg/injection, schedule: Q01DX009 (ip), vehicle: saline 96 % of control | dose: 200.0 mg/kg/injection, schedule: Q01DX009 (ip), vehicle: saline 103 % of control

CCCN(CCC)c1nnc([N+](=O)[O-])s1
inactive: dose: 50.0 mg/kg/injection, schedule: Q01DX001 (ip), vehicle: other 104 % of control | dose: 100.0 mg/kg/injection, schedule: Q01DX001 (ip), vehicle: other 100 % of control | dose: 200.0 mg/kg/injection, schedule: Q01DX001 (ip), vehicle: other 104 % of control

CC(C)CC(NCc1ccccc1)C(=O)O (stereo unspecified)
inactive: [1] 95 % of control | [2] 100 % of control | [3] 95 % of control

O=C(CCCCl)CC(O)(C(F)(F)F)C(F)(F)F
inactive: dose: 100.0 mg/kg/injection, schedule: Q04DX003 (ip), vehicle: saline with Tween-80 110 % of control | dose: 200.0 mg/kg/injection, schedule: Q04DX003 (ip), vehicle: saline with Tween-80 90 % of control

[O-]c1cc2c3c(c1)c1cc4c(cc1c[n+]3C=C2)OCO4
inactive: [11] 123 % of control

CNC(=S)N/N=C/Cn1ccc(=O)[nH]c1=O
inactive: [12] 89 % of control | [13] 90 % of control

COc1cc(Br)cc(C(=O)O)c1OC
inactive: [11] 101 % of control | dose: 50.0 mg/kg/injection, schedule: Q01DX009 (ip), vehicle: other 106 % of control | [8] 93 % of control | dose: 100.0 mg/kg/injection, schedule: Q01DX009 (ip), vehicle: other 102 % of control | [9] 93 % of control | [10] 100 % of control | [14] 102 % of control

CC1(C)c2cccc(O)c2C(=O)C2C(O)=C3C(O)=C(C(N)=O)C(=O)CC3C(O)C21 (stereo unspecified)
inactive: dose: 60.0 mg/kg/injection, schedule: Q01DX005 (ip), vehicle: saline with Tween-80 109 % of control | dose: 120.0 mg/kg/injection, schedule: Q01DX005 (ip), vehicle: saline with Tween-80 111 % of control | dose: 240.0 mg/kg/injection, schedule: Q01DX005 (ip), vehicle: saline with Tween-80 121 % of control

O=C1N=C2C=CC=CN2C(=O)C1Cc1ccccc1 (stereo unspecified)
inactive: [9] 120 % of control | [10] 110 % of control | [14] 90 % of control

CC(C)(C)NC(=O)N1C2C3CCC(C)(OC3(C)C)C21 (stereo unspecified)
inactive: [1] 98 % of control | [2] 99 % of control

Nc1cc(=O)[nH]c(=S)[nH]1.[Pd]
inactive: dose: 12.5 mg/kg/injection, schedule: Q01DX009 (ip), vehicle: distilled water + Tween-80 108 % of control | dose: 25.0 mg/kg/injection, schedule: Q01DX009 (ip), vehicle: distilled water + Tween-80 97 % of control | dose: 50.0 mg/kg/injection, schedule: Q01DX009 (ip), vehicle: distilled water + Tween-80 100 % of control | dose: 100.0 mg/kg/injection, schedule: Q01DX009 (ip), vehicle: distilled water + Tween-80 95 % of control | dose: 200.0 mg/kg/injection, schedule: Q01DX009 (ip), vehicle: distilled water + Tween-80 105 % of control

CCC(C)C1(O)OC2CC3(C)OC(=CC3=O)/C(C)=C\C3OC(=O)C1(C)C32 (stereo unspecified)
inactive: dose: 10.0 mg/kg/injection, schedule: Q01DX005 (ip), vehicle: saline + alcohol 96 % of control | dose: 20.0 mg/kg/injection, schedule: Q01DX005 (ip), vehicle: saline + alcohol 100 % of control | dose: 40.0 mg/kg/injection, schedule: Q01DX005 (ip), vehicle: saline + alcohol 105 % of control | dose: 80.0 mg/kg/injection, schedule: Q01DX005 (ip), vehicle: saline + alcohol 99 % of control

CSCCC(NC(=O)C(Cc1ccccc1)NC(=O)CNC(=O)C(C)NC(=O)C(N)Cc1ccc(O)cc1)C(N)=O (stereo unspecified)
inactive: dose: 8.75 mg/kg/injection, schedule: Q01DX005 (ip), vehicle: saline 103 % of control | dose: 17.5 mg/kg/injection, schedule: Q01DX005 (ip), vehicle: saline 107 % of control | dose: 35.0 mg/kg/injection, schedule: Q01DX005 (ip), vehicle: saline 100 % of control | dose: 70.0 mg/kg/injection, schedule: Q01DX005 (ip), vehicle: saline 100 % of control | dose: 140.0 mg/kg/injection, schedule: Q01DX005 (ip), vehicle: saline 104 % of control

CN(C)C=Nc1ccc(Cl)cc1
inactive: dose: 25.0 mg/kg/injection, schedule: Q01DX009 (ip), vehicle: saline with Tween-80 99 % of control | [8] 105 % of control

CC1(C)CC(=O)c2c(oc3ccc(O)cc23)C1
inactive: [12] 97 % of control | [13] 97 % of control | dose: 200.0 mg/kg/injection, schedule: Q01DX005 (ip), vehicle: Klucel (hydroxypropylcellulose) (HPC) 92 % of control
